Consider two molecules from publication PMC3083694, “Effects of Intermediates between Vitamins K2 and K3 on Mammalian DNA Polymerase Inhibition and Anti-Inflammatory Activity” (International Journal of Molecular Sciences, 2011).

One assay has as its target T1, T4 DNA polymerase (Enterobacteria phage T4, UniProt P04415).
T1 construct: purchased
Put plainly: DNA polymerase activity assay, T4 pol. It is filed as biochemical. The note with it: prokaryotic pol; read-out: IC50 Value of MK-2, T4 DNA polymerase. Here is the method:
(§1) Pols from mammals, a fish (cherry salmon), an insect (fruit fly) and a plant (cauliflower) were purified, and prokaryotic pols and other DNA metabolic enzymes, such as T7 RNA polymerase, T4 polynucleotide kinase and bovine deoxyribonuclease I, were purchased as described in our previous report. The activities of all pols and other DNA metabolic enzymes were measured as described in previous reports.
(§2) The components of the pol assay were poly(dA)/oligo(dT)18 and dTTP as the DNA template-primer and 2′-deoxyribonucleoside 5′-triphosphate (dNTP) substrate, respectively. VK2, VK3, and their synthesized derivatives (i.e., MK-3, MK-2 and MK-1) were dissolved in dimethyl sulfoxide (DMSO) at various concentrations and sonicated for 30 s. The sonicated samples (4 μL) were mixed with 16 μL of each pol enzyme (final amount, 0.05 units) in 50 mM Tris-HCl (pH 7.5) containing 1 mM dithiothreitol, 50% glycerol and 0.1 mM EDTA, and kept at 0 °C for 10 min. […] Activity without the inhibitor was considered to be 100%, and the activity remaining at each concentration of inhibitor was determined relative to this value. […]

The next assay addresses T2, Rat DNA polymerase β (Rattus norvegicus, UniProt P06766).
T2 construct: made in house
Put plainly: DNA polymerase activity assay, rat pol β. The settings on record: X-family pol; read-out: IC50 Value of MK-2, Rat DNA polymerase β. It is filed as biochemical. Here is the method:
as §1, §2

Assay [1] deals with Calf primase of DNA polymerase α (Bos taurus, UniProt A0A3Q1MF00). Put plainly: DNA metabolic enzyme assay, calf primase of pol α. It is filed as biochemical. The settings on record: other DNA metabolic enzyme; read-out: IC50 Value of MK-2, Calf primase of DNA polymerase α. Here is the method:
as §1

The next assay addresses T3, T7 RNA polymerase (Escherichia phage T7, UniProt P00573).
T3 construct: purchased
Put plainly: DNA metabolic enzyme assay, T7 RNA polymerase. In kind it is biochemical. The note with it: other DNA metabolic enzyme; read-out: IC50 Value of MK-2, T7 RNA polymerase. Here is the method: as §1

Assay [2] addresses T4, Bovine deoxyribonuclease I (Bos taurus, UniProt P00639).
T4 construct: purchased
In words: DNA metabolic enzyme assay, bovine deoxyribonuclease I. In kind it is biochemical. The settings on record: other DNA metabolic enzyme; read-out: IC50 Value of MK-2, Bovine deoxyribonuclease I. Here is the method:
as §1

For assay [3], the target named is T5, Fruit fly DNA polymerase ɛ (Drosophila melanogaster, UniProt Q9VCN1).
T5 construct: made in house
Put plainly: DNA polymerase activity assay, fruit fly pol ɛ. In kind it is biochemical. The settings on record: insect pol; read-out: IC50 Value of MK-2, Fruit fly DNA polymerase ɛ. Here is the method:
as §1, §2

In assay [4] the target is T6, Fruit fly DNA polymerase α (Drosophila melanogaster, UniProt P26019).
T6 construct: made in house
T6 sequence (P26019 whole entry): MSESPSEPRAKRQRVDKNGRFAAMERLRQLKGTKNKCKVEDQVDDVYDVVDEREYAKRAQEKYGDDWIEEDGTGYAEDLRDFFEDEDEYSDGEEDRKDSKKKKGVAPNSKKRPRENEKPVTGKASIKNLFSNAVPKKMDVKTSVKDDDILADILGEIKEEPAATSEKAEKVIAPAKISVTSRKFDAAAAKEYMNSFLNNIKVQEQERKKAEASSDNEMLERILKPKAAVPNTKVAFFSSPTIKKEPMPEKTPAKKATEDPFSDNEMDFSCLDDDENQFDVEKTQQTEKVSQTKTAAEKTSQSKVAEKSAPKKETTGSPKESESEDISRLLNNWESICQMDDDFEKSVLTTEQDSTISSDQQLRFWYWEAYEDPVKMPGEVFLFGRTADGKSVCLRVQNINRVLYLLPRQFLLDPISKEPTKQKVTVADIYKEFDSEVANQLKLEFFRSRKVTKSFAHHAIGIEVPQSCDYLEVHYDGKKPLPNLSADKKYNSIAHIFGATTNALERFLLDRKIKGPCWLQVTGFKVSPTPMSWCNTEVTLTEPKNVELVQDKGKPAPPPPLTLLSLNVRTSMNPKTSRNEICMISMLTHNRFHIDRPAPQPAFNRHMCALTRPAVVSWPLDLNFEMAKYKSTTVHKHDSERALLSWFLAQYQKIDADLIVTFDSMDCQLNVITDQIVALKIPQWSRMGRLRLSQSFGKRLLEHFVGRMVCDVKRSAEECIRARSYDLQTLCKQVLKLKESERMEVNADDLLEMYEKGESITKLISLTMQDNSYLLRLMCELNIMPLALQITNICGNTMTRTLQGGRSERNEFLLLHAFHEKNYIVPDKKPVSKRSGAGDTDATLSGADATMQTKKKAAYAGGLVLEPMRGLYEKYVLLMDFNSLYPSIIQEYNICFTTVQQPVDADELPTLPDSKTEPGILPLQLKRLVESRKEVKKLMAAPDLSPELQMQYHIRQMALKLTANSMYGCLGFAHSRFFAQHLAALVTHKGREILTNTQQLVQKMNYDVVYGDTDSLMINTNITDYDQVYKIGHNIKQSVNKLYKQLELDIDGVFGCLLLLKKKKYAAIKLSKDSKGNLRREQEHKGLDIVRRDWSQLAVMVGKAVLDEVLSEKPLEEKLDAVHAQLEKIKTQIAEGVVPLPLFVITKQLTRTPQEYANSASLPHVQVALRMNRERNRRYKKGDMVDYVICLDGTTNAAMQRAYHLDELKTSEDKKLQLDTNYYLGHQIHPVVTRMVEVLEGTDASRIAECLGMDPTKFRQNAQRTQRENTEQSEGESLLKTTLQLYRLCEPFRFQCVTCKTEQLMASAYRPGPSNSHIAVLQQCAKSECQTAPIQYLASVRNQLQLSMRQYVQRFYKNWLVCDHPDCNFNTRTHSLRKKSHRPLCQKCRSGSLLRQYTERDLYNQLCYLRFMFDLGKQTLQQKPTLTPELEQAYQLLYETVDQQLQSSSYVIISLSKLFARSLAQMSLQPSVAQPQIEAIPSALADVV
In words: DNA polymerase activity assay, fruit fly pol α. In kind it is biochemical. The note with it: insect pol; read-out: IC50 Value of MK-2, Fruit fly DNA polymerase α. The procedure:
as §1, §2

Assay [5] deals with Cherry salmon DNA polymerase δ (Oncorhynchus masou, UniProt Z9UCE0HTX2). In words: DNA polymerase activity assay, cherry salmon pol δ. It is filed as biochemical. The settings on record: fish pol; read-out: IC50 Value of MK-2, Cherry salmon DNA polymerase δ. Here is the method:
as §1, §2

Assay [6] has as its target T7, Human DNA polymerase γ (Homo sapiens, UniProt P54098).
T7 construct: made in house
T7 sequence (P54098 1-1239): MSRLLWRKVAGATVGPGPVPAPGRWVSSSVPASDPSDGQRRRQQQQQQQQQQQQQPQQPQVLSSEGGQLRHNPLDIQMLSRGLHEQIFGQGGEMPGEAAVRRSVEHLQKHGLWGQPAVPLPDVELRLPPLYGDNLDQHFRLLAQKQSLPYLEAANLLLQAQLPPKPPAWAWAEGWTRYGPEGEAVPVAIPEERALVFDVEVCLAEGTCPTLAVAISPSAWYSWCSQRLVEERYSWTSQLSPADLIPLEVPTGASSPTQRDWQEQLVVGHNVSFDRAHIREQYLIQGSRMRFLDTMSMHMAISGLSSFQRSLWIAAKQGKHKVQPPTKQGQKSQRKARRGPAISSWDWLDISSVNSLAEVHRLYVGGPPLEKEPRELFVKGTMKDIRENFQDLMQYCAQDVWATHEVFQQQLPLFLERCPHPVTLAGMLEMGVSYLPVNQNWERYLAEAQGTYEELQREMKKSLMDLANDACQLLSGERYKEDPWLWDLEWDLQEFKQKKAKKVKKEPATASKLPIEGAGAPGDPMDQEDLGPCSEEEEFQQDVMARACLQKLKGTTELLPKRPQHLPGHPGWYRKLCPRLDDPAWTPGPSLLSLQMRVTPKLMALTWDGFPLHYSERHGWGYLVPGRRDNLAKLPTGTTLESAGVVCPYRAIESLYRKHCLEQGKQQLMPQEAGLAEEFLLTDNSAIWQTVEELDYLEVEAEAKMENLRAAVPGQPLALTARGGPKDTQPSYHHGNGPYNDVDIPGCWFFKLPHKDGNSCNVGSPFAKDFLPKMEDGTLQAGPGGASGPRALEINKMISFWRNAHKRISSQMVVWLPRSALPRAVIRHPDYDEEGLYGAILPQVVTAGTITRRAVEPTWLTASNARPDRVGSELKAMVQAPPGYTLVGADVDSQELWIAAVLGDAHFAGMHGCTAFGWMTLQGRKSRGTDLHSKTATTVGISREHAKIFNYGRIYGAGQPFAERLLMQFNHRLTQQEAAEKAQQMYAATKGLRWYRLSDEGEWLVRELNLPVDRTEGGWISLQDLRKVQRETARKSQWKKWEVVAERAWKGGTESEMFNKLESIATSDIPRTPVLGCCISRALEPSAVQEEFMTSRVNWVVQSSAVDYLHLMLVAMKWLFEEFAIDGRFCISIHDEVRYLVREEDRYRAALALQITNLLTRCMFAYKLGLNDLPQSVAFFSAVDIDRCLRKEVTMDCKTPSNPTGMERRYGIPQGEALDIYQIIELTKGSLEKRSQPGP
In words: DNA polymerase activity assay, human pol γ. It is filed as biochemical. Here is the method: as §1
The components of the pol assay were poly(dA)/oligo(dT)18 and dTTP as the DNA template-primer and 2′-deoxyribonucleoside 5′-triphosphate (dNTP) substrate, respectively. VK2, VK3, and their synthesized derivatives (i.e., MK-3, MK-2 and MK-1) were dissolved in dimethyl sulfoxide (DMSO) at various concentrations and sonicated for 30 s. The sonicated samples (4 μL) were mixed with 16 μL of each pol enzyme (final amount, 0.05 units) in 50 mM Tris-HCl (pH 7.5) containing 1 mM dithiothreitol, 50% glycerol and 0.1 mM EDTA, and kept at 0 °C for 10 min. These inhibitor–enzyme mixtures (8 μL) were added to 16 μL of each standard enzyme reaction mixture (50 mM Tris-HCl [pH 7.5], 1 mM dithiothreitol, 1 mM MgCl2, 15% glycerol, 10 μM poly(dA)/oligo(dT)18 and 10 μM [^3H]-dTTP), and incubation was carried out at 37 °C for 60 min, except for Taq pol, which was incubated at 74 °C for 60 min. Activity without the inhibitor was considered to be 100%, and the activity remaining at each concentration of inhibitor was determined relative to this value. One unit of pol activity was defined as the amount of enzyme that catalyzed the incorporation of 1 nmol dNTP (dTTP) into the synthetic DNA template-primer (poly(dA)/oligo(dT)18, A/T = 2/1) in 60 min at 37 °C under normal reaction conditions for each enzyme (scintillation counts: approximately 1 pmol of incorporated radioactive nucleotides = 100 cpm).

In assay [7] the target is T7, Human DNA polymerase γ. On the set-up: method as in PMID 18312466, PMID 18698499, PMID 20030669, PMID 20881898. The note with it: earlier work of the authors; cited from earlier work.

Sequence of Calf primase of DNA polymerase α (A0A3Q1MF00 entry or part of it): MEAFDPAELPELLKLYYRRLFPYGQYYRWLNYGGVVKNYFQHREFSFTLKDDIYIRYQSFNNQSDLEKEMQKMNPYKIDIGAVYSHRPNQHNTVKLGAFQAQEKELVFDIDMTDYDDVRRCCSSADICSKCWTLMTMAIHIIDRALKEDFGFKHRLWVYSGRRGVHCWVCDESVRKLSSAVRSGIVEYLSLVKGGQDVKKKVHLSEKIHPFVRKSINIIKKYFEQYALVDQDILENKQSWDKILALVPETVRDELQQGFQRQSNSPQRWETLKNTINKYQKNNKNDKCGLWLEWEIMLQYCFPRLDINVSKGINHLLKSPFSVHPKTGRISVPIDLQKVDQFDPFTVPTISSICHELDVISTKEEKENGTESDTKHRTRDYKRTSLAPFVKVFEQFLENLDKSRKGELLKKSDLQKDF
Sequence of Calf primase of DNA polymerase α (A0AAA9THK8 entry or part of it, further chain): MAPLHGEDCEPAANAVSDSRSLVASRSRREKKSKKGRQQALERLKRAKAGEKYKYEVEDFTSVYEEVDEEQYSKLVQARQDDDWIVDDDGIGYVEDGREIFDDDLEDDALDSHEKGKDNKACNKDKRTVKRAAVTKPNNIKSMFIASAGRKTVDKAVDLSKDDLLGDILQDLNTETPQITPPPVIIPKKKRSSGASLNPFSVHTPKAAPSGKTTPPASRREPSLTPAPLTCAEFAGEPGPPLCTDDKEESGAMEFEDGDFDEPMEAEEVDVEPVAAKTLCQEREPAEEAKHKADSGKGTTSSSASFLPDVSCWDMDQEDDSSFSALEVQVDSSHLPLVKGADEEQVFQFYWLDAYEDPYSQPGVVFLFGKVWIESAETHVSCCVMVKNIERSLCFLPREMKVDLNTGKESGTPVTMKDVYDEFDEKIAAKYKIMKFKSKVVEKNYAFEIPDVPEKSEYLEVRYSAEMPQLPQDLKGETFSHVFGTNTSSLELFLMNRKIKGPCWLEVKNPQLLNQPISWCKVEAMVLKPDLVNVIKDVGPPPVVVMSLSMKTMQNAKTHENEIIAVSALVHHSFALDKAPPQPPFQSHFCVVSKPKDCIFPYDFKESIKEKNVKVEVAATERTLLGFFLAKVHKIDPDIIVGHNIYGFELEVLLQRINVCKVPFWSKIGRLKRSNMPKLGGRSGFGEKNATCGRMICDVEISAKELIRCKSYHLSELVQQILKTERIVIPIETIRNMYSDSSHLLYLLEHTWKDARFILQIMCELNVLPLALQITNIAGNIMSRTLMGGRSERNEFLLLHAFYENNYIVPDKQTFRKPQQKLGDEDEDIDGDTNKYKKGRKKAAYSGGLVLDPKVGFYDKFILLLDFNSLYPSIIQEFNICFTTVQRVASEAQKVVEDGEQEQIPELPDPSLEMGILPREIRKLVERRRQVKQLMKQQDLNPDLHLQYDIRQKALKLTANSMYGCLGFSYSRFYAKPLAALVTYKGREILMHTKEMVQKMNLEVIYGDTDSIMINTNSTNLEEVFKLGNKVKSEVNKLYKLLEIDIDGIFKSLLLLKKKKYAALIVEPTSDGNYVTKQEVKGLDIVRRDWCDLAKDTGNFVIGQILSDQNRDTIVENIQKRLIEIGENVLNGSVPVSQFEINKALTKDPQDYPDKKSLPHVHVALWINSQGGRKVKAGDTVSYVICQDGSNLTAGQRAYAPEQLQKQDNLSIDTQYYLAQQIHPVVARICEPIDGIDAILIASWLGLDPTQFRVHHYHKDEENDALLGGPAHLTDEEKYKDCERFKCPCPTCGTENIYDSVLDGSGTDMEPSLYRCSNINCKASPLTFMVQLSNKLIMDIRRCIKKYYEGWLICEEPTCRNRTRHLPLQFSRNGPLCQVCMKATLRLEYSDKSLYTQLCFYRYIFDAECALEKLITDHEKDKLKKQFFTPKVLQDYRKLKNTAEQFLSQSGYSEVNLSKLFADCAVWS
Sequence of Calf primase of DNA polymerase α (A0JNF4 entry or part of it, further chain): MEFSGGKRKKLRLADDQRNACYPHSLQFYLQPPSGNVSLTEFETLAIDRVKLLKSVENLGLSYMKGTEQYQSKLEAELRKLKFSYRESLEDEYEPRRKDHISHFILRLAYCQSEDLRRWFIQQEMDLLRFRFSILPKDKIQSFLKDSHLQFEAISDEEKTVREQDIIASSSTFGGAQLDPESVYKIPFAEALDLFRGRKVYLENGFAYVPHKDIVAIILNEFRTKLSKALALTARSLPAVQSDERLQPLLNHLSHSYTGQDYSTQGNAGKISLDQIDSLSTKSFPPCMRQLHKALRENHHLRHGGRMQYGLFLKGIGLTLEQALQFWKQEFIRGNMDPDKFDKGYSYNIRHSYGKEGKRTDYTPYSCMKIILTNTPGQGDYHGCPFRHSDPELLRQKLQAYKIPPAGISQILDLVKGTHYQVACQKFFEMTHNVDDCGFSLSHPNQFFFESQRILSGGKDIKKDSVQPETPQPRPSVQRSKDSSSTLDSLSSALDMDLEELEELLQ
Sequence of Calf primase of DNA polymerase α (Q58D13 whole entry, further chain): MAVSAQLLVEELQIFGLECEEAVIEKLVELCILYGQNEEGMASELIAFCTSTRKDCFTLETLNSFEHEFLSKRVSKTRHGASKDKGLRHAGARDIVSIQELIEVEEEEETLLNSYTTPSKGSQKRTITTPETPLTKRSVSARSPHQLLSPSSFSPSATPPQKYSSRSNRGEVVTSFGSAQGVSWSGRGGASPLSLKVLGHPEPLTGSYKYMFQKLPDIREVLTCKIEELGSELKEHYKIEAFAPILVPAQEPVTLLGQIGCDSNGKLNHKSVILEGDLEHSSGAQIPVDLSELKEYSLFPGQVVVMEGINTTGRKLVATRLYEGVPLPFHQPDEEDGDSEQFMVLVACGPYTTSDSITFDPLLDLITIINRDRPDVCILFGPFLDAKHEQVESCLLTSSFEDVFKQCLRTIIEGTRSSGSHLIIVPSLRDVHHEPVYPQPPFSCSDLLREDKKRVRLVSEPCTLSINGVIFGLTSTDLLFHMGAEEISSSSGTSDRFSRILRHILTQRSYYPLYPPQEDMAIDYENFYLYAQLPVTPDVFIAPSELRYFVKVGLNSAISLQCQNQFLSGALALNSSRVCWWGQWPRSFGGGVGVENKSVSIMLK
T4 sequence (P00639 23-282): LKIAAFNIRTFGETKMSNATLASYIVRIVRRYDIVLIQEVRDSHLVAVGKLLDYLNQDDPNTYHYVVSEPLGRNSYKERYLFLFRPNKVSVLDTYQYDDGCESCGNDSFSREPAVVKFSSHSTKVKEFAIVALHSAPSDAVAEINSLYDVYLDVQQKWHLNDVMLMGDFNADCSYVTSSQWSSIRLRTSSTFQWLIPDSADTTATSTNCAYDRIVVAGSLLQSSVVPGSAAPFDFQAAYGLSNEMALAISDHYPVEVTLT

Consider `CC(C)=CCC/C(C)=C/CC1=C(C)C(=O)c2ccccc2C1=O` [MK-2], for which the IC50 is greater than 200 µM on T4 DNA polymerase; 31 ± 1.8 µM at Rat DNA polymerase β; greater than 200 µM in assay [1]; greater than 200 µM on T7 RNA polymerase; greater than 200 µM in assay [2]; 36.7 ± 2.1 µM in assay [3]. Further, the half-inhibitory concentration (IC50) came to 34 ± 2 µM in [4]; 32.5 ± 1.9 µM in [5]; 68.8 ± 3.4 µM at Human DNA polymerase γ [6] (A-family pol, poly(dA)/oligo(dT)18 and dTTP, read-out: IC50 Value of MK-2, Human DNA polymerase γ).
`CC(C)=CCC/C(C)=C/CC/C(C)=C/CC/C(C)=C/CC1=C(C)C(=O)c2ccccc2C1=O` [MK-4, menaquinone 4, reference compound]: the “Inhibitor of human pol γ” value on Human DNA polymerase γ [7] is listed as “not”. In addition, the “Inhibitory effect on human pol γ activity” value at Human DNA polymerase γ [6] (50 μM of each compound, Figure 2) was “had no effect on pol activity”.

What is called IC50 is the concentration at which inhibition is half-maximal.
